According to patent publication US20250176550A1, “HERBICIDE COMPOSITION OF URACIL COMPOUND CONTAINING CARBOXYLATE FRAGMENT AND THE USE THEREOF” (Jiangsu Flag Chemical Industry Co., Ltd., priority 2022, published 2025):

How the values were obtained:
Assay in all cases: Indoor virulence and combined effect, greenhouse pot test, post-emergence stem and leaf spray, fresh weight inhibition
Assay type in all cases: in vivo
eleusine indica = test system: eleusine indica
Protocol: (§1) The active ingredients A and B are respectively screened and an indoor combined effect of the composition on weeds was evaluated by an indoor test and a field test, to determine a combined effect of the composition on weeds.
(§2) Quantitative seeds of Poaceae weeds (echinochloa crusgalli, Digitaria sanguinalis, setaria viridis, Eleusine indica, avena fatua, alopecurus japonicus, alopecurus aequalis, Lolium multiflorum) and broadleaf weeds (eclipta prostrata, rorippa dubia, Abutilon theophrasti, conyza canadensis, veronica persica, myosoton aquaticum, polygonum lapathifolium, galium aparine var. tenerum, alisma plantago-aquatica, geranium carolinianum) were sown in paper cup containing nutrient soil with a diameter of 7 cm, covered with soil for 1 cm after sowing. After pressing and watering, they were cultured in a greenhouse according to a conventional method. Poaceae weeds grew to 3˜4 leaf stage, broad-leaved weeds grew to 4˜6 leaf stage, spraying treatment to both stem and leaf was performed; and pre-seedling soil spray treatment was performed 24 hours after sowing. Following an experimental design dosage, a WP-2000 walking spray tower (spindle speed 96 mm/r, spray height 200 mm, effective spray amplitude of nozzle 350 mm, nozzle flow rate 390 mL/min, nozzle walking speed 210 mm/s) was used for the spray treatment. The experiment was repeated three times. After being treated, a sample material is placed in an operation hall, and after the drug solution is naturally dried out, the sample material is placed in a greenhouse and managed according to the conventional method. A reaction of weeds to the drug agent is observed and recorded, and a regularly visual check of a control effect of the drug agent on weeds was performed after the treatment.
(§3) All of original drugs were using acetone as a solvent, being diluted with 0.1 wt % emulsifier of Tween-80 aqueous solution, and being diluted right before using.
(§4) When determining a ratio or content of the active ingredient A and the active ingredient B, it should be measured from characteristics of action of both agents and virulence thereof, as well as the main purpose of use of a formula shall also be considered in. In the present study, on a basis of previous pre-test, the dosages of the active ingredient A and the active ingredient B were set, when being used alone and mixed, as shown in the following table. Water containing no agent, but containing the same solvent and emulsifier was used as a blank control.
(§5) Repeat 4 times for each treatment, 3 pots per treatment each time and 30 weed seeds were sown for each pot.
(§6) Adopting an absolute number survey method, using a blade to cut the whole seedling of surviving weed along soil surface, and weighting the fresh weight of the weed with an analytical balance. For weeds that had died, counting the fresh weight as zero.
(§7) Survey period and frequency: 21 days after the treatment, total 1 investigation.
(§8) The theoretical fresh weight inhibition rate (E0-Expected Efficacy=[…]) of each treatment combination was calculated by Gowing method, and then compared with the measured inhibition rate (E-Observed Efficacy) to evaluate the combined effect type of both on weeds. When E-E0 value was greater than 10%, it was counted as a synergistic effect, less than −10%, it was counted as an antagonistic effect, and between −10%˜10%, it was counted as an additive effect. According to a plurality of factors including an actual control efficacy, a herbicide characteristic, a formula balance and other factors to determine the best ratio. In the formula, X is the fresh weight inhibition rate of the ingredient A at a dosage of P; Y is the fresh weight inhibition rate of the active ingredient B at a dosage of Q.
(§9) The statistical results are shown in Table 1 to Table 44 below, except for those marked clearly as “pre-emergence treatment”, all others are “post-emergence treatment”. […]

echinochloa crusgalli = conditions: Table 22
Protocol: as §1
as §2, with “Following an experimental design dosage, a WP-2000 walking spray tower (spindle speed 96 mm/r, spray height 200 mm, effective spray amplitude of nozzle 350 mm, nozzle flow rate 390 mL/min, nozzle walking speed 210 mm/s) was used for the spray treatment.” left out, “method.” for “method. A reaction of weeds to the drug agent is observed and recorded, and a regularly visual check of a control effect of the drug agent on weeds was performed after the treatment.”
as §3, §4, §5, §6, §7
When E-E0 value was greater than 10%, it was counted as a synergistic effect, less than −10%, it was counted as an antagonistic effect, and between −10%˜10%, it was counted as an additive effect. […] In the formula, X is the fresh weight inhibition rate of the ingredient A at a dosage of P; Y is the fresh weight inhibition rate of the active ingredient B at a dosage of Q.

digitaria sanguinalis = conditions: for Fresh weight suppression rate %, B single agent: Table 14
Protocol: as §1, §2, §3, §4, §5, §6, §7, §8, §9

CCOC(=O)C1(C)CC(c2cc(-n3c(=O)cc(C(F)(F)F)n(C)c3=O)c(F)cc2Cl)=NO1 (centres unmarked) [SY-1604]
Fresh weight inhibition rate %, B single agent (eleusine indica; Table 33, B 7.5 g a.i./ha): 47.10%
Fresh weight inhibition rate %, B single agent (eleusine indica; Table 33, B 12.5 g a.i./ha): 48.33%
Fresh weight inhibition rate %, B single agent (eleusine indica; Table 33, B 20 g a.i./ha): 64.09%
Fresh weight inhibition rate %, B single agent (eleusine indica; Table 33, B 30 g a.i./ha): 72.50%
Fresh weight inhibition rate %, B single agent (eleusine indica; Table 33, B 40 g a.i./ha): 74.06%

COP(=S)(OC)SCC(=O)N(c1ccc(Cl)cc1)C(C)(C)C [anilofos]
Fresh weight suppression rate %, B single dose (echinochloa crusgalli; B 60 g a.i./ha): 37.41%
Fresh weight suppression rate %, B single dose (echinochloa crusgalli; B 80 g a.i./ha): 41.96%
Fresh weight suppression rate %, B single dose (echinochloa crusgalli; B 105 g a.i./ha): 46.85%
Fresh weight suppression rate %, B single dose (echinochloa crusgalli; B 120 g a.i./ha): 64.69%

CCOC(=O)COc1ncccc1Oc1cc(-n2c(=O)cc(C(F)(F)F)n(C)c2=O)c(F)cc1Cl [epyrifenacil]
Fresh weight inhibition rate %, B single agent (eleusine indica; Table 35, B 5 g a.i./ha): 38.04%
Fresh weight inhibition rate %, B single agent (eleusine indica; Table 35, B 10 g a.i./ha): 32.92%
Fresh weight inhibition rate %, B single agent (eleusine indica; Table 35, B 15 g a.i./ha): 37.91%
Fresh weight inhibition rate %, B single agent (eleusine indica; Table 35, B 20 g a.i./ha): 51.59%

C[C@@H](Oc1nc(F)c(Cl)c(N)c1Cl)C(=O)OCC1CCCO1 (some centres unmarked) [fluchloraminopyr-tefuryl]
Fresh weight inhibition rate %, B single agent (digitaria sanguinalis; Table 41, B 50 g a.i./ha): 47.40%
Fresh weight inhibition rate %, B single agent (digitaria sanguinalis; Table 41, B 80 g a.i./ha): 66.49%
Fresh weight inhibition rate %, B single agent (digitaria sanguinalis; Table 41, B 120 g a.i./ha): 74.76%
Fresh weight inhibition rate %, B single agent (digitaria sanguinalis; Table 41, B 150 g a.i./ha): 79.70%

COC(=O)[C@@H](C)O/N=C/c1cc(-n2c(=O)cc(C(F)(F)F)n(C)c2=O)c(F)cc1Cl [flufenoximacil]
Fresh weight inhibition rate %, B single agent (eleusine indica; Table 36, B 5 g a.i./ha): 34.41%
Fresh weight inhibition rate %, B single agent (eleusine indica; Table 36, B 10 g a.i./ha): 51.91%
Fresh weight inhibition rate %, B single agent (eleusine indica; Table 36, B 15 g a.i./ha (row 5 + 15)): 55.99%
Fresh weight inhibition rate %, B single agent (eleusine indica; Table 36, B 15 g a.i./ha (row 15 + 15)): 55.99%
Fresh weight inhibition rate %, B single agent (eleusine indica; Table 36, B 20 g a.i./ha): 59.18%

CCC[S+]([O-])c1c(C(F)(F)F)ccc(C(=O)Nc2nnc(C)o2)c1F (centres unmarked) [flusulfinam]
Fresh weight suppression rate %, B single agent (digitaria sanguinalis; B 15 g a.i./ha): 34.84%
Fresh weight suppression rate %, B single agent (digitaria sanguinalis; B 30 g a.i./ha): 36.52%
Fresh weight suppression rate %, B single agent (digitaria sanguinalis; B 37.5 g a.i./ha): 40.37%
Fresh weight suppression rate %, B single agent (digitaria sanguinalis; B 45 g a.i./ha): 50.75%

CC(C)N.O=C(O)CNCP(=O)(O)O [glyphosate-isopropylammonium]
Fresh weight inhibition rate %, B single agent (eleusine indica; Table 18, B 160 g a.i./ha): 27.36%
Fresh weight inhibition rate %, B single agent (eleusine indica; Table 18, B 240 g a.i./ha): 32.37%
Fresh weight inhibition rate %, B single agent (eleusine indica; Table 18, B 350 g a.i./ha): 35.52%
Fresh weight inhibition rate %, B single agent (eleusine indica; Table 18, B 500 g a.i./ha): 45.72%

CS(=O)(=O)c1cc(C(F)(F)F)ccc1C(=O)c1cnoc1C1CC1 [isoxaflutole]
Fresh weight inhibition rate %, B single agent (digitaria sanguinalis; Table 16, B 40 g a.i./ha): 56.12%
Fresh weight inhibition rate %, B single agent (digitaria sanguinalis; Table 16, B 50 g a.i./ha): 71.94%
Fresh weight inhibition rate %, B single agent (digitaria sanguinalis; Table 16, B 60 g a.i./ha): 73.13%
Fresh weight inhibition rate %, B single agent (digitaria sanguinalis; Table 16, B 70 g a.i./ha): 76.72%

CS(=O)(=O)c1ccc(C(=O)C2C(=O)CCCC2=O)c([N+](=O)[O-])c1 [mesotrione]
Fresh weight inhibition rate %, B single agent (digitaria sanguinalis; Table 13, B 90 g a.i./ha): 45.39%
Fresh weight inhibition rate %, B single agent (digitaria sanguinalis; Table 13, B 105 g a.i./ha): 56.62%
Fresh weight inhibition rate %, B single agent (digitaria sanguinalis; Table 13, B 120 g a.i./ha): 58.12%

C[C@@H](Oc1ccc(Oc2nc3ccc(Cl)cc3o2)cc1)C(=O)N(C)c1ccccc1F [metamifop]
Fresh weight inhibition rate %, B single agent (digitaria sanguinalis; Table 29, B 15 g a.i./ha): 49.80%
Fresh weight inhibition rate %, B single agent (digitaria sanguinalis; Table 29, B 25 g a.i./ha): 55.48%
Fresh weight inhibition rate %, B single agent (digitaria sanguinalis; Table 29, B 40 g a.i./ha): 58.52%
Fresh weight inhibition rate %, B single agent (digitaria sanguinalis; Table 29, B 60 g a.i./ha): 60.50%

COc1cc(OC)nc(NC(=O)NS(=O)(=O)c2ncccc2C(=O)N(C)C)n1 [nicosulfuron]
inhibition at 12.5 g/ha (digitaria sanguinalis; Digitaria sanguinalis, 504 h, Table 1, 12.5 g a.i./ha, post-emergence, 21 days after treatment, read-out: Fresh weight inhibition rate %, B single agent): 10.2%
inhibition at 20 g/ha (digitaria sanguinalis; Digitaria sanguinalis, 504 h, Table 1, 20 g a.i./ha, post-emergence, 21 days after treatment, read-out: Fresh weight inhibition rate %, B single agent): 23.4%
inhibition at 25 g/ha (digitaria sanguinalis; Digitaria sanguinalis, 504 h, Table 1, 25 g a.i./ha, post-emergence, 21 days after treatment, read-out: Fresh weight inhibition rate %, B single agent): 34.9%
inhibition at 30 g/ha (digitaria sanguinalis; Digitaria sanguinalis, 504 h, Table 1, 30 g a.i./ha, post-emergence, 21 days after treatment, read-out: Fresh weight inhibition rate %, B single agent): 39.1%

CC(C)N(C)S(=O)(=O)NC(=O)c1cc(-n2c(=O)cc(C(F)(F)F)n(C)c2=O)c(F)cc1Cl [saflufenacil]
Fresh weight inhibition rate %, B single agent (eleusine indica; Table 30, B 7.5 g a.i./ha): 23.20%
Fresh weight inhibition rate %, B single agent (eleusine indica; Table 30, B 12.5 g a.i./ha): 39.66%
Fresh weight inhibition rate %, B single agent (eleusine indica; Table 30, B 20 g a.i./ha): 50.62%
Fresh weight inhibition rate %, B single agent (eleusine indica; Table 30, B 30 g a.i./ha): 58.13%
Fresh weight inhibition rate %, B single agent (eleusine indica; Table 30, B 40 g a.i./ha): 50.09%

Cc1nn(-c2cc(NS(C)(=O)=O)c(Cl)cc2Cl)c(=O)n1C(F)F [sulfentrazone]
Fresh weight inhibition rate %, B single agent (eleusine indica; Table 32, B 75 g a.i./ha): 8.30%
Fresh weight inhibition rate %, B single agent (eleusine indica; Table 32, B 120 g a.i./ha): 18.12%
Fresh weight inhibition rate %, B single agent (eleusine indica; Table 32, B 150 g a.i./ha): 23.53%

Cc1c(C(=O)c2cnn(C)c2O)ccc(S(C)(=O)=O)c1C1=NOCC1 [topramezone]
Fresh weight inhibition rate %, B single agent (digitaria sanguinalis; Table 15, B 7.5 g a.i./ha): 3.85%
Fresh weight inhibition rate %, B single agent (digitaria sanguinalis; Table 15, B 10 g a.i./ha): 17.09%
Fresh weight inhibition rate %, B single agent (digitaria sanguinalis; Table 15, B 12.5 g a.i./ha): 19.6%

oxadiargyl
Fresh weight inhibition rate %, B single agent (digitaria sanguinalis; Table 31, B 12.5 g a.i./ha): 38.31%
Fresh weight inhibition rate %, B single agent (digitaria sanguinalis; Table 31, B 20 g a.i./ha): 42.31%
Fresh weight inhibition rate %, B single agent (digitaria sanguinalis; Table 31, B 30 g a.i./ha): 52.31%
